Measured values taken from paper PMC7868322, “Rational Design of A Novel Small-Molecule HIV-1 Inactivator Targeting Both gp120 and gp41 of HIV-1” (Frontiers in Pharmacology, 2021).
Where two headings read alike, the source gives them in different places.

Legend:
HIV-1 IIIB (X4) = assay: Inhibition of HIV-1 infection (p24 ELISA); assay type: cell-based
HIV-1 Bal (R5) = assay: Inhibition of HIV-1 infection (p24 ELISA); assay type: cell-based
HIV-1 IIIB = assay: Inactivation of cell-free HIV-1 virions (PEG-6000 precipitation, p24 ELISA); assay type: cell-based; conditions: Human immunodeficiency virus 1, IIIB virus inactivation
HIV-1 Bal = assay: as above; assay type: cell-based
HIV-1 HXB2 gp120 = biological target: T1, HIV-1 HXB2 gp120 (Human immunodeficiency virus type 1 group M subtype B, UniProt P04578); assay: Flow cytometry competition with gp120 CD4bs-targeting mAbs on CHO-WT cells; assay type: binding; conditions: 100 µM
T1 construct: CHO-WT cells expressing HIV-1 HXB2 gp120; host or cells: CHO-WT cells
Protocol: Flow cytometry was used to detect compounds that competed with gp120 CD4bs-targeting mAbs for binding to gp120. In brief, 100 µL of FD016 at a concentration of 100 µM or PBS was first incubated with CHO-WT cells expressing HIV-1 HXB2 gp120 for 30 min at room temperature, and then gp120 CD4bs-targeting mAbs (5 μg/mL, 100 µL) and FITC-labeled goat anti-human secondary antibody were added successively. After three washes, the cells were analyzed with flow cytometry. ELISA was carried out to detect the activity of compounds that inhibit the binding of soluble CD4 (sCD4) or gp120 CD4bs-targeting mAbs to gp120 as previously described ([Si et al., 2004]; [Curreli et al., 2014]). Briefly, for sCD4 and gp120 binding, 50 µL of HIV-1 IIIB gp120 at 0.5 μg/mL was captured on polystyrene plate coated with sheep anti-gp120 antibody D7324 (Aalto Bio Reagents). sCD4 (ImmunoDiagnostics, Inc.) at 200 ng/mL was then added in the presence of an equal volume of different concentrations of compounds or PBS and incubated at 37°C for 1 h. […] After adding 3,3′,5,5′-tetramethylbenzidine chromogen substrate and sulfuric acid, the absorbance at 450 nm (A450) was recorded using a Microplate Reader (Tecan, Männedorf, Switzerland).

Cytotoxicity (CCK-8) = assay type: cell-based; conditions: human
Protocol: Cell viability was detected following the instructions in the protocol provided in the cell counting kit-8 (CCK-8; Dojindo Molecular Technologies, Gaithersburg, MD, USA) as previously described ([Yang et al., 2018]). Briefly, MT-2 cells and CEMx174 517 5.25 M7 cells (3 × 10^4/well) were incubated with compounds at different concentrations at 37°C for 48 h. Then, the supernatant was discarded, and CCK8 diluted 10 times with fresh medium was added (200 μL/well). After 2–6 h of incubation at 37°C, the absorbance at 450 nm was measured using a microplate reader (Tecan, Männedorf, Switzerland).

[1] = biological target: T2, 6HB formation between N36 and C34-biotin (Human immunodeficiency virus type 1 group M subtype B, UniProt P04578); assay: ELISA inhibition of six-helix bundle formation; assay type: biochemical, HIV-1; conditions: IC50, inhibition of 6HB formation between N36 and C34-biotin, peptides 0.5 μM final
T2 construct: preincubated with N36 peptide (2 μM, 50 μL) at 37°C for 1 h; purchased NIH AIDS Reagent Program
Protocol: An inhibitor (compound or C-peptide control) at graded concentrations was preincubated with N36 peptide (2 μM, 50 μL) at 37°C for 1 h. […] Subsequently, 50 μL of the mixture were added to the wells of the NC-1-coated plate, followed by incubation for 1 h. Then, HRP-labeled streptavidin and the substrate were added sequentially. The optical density at 450 nm was measured using a microplate reader (Tecan, Männedorf, Switzerland).

92/TH/009 (A/E, R5) = assay: Inactivation of cell-free HIV-1 clinical virus; assay type: cell-based; conditions: inactivation of cell-free virions, means ± SD
KNH1135 (A, R5) = assay: microbe, parasite or virus in culture; assay type: cell-based, HIV-1; conditions: inactivation of cell-free virions, clinical virus KNH1135 (A, R5); means ± SD
SM145/GS 016 (C, R5) = assay: Inactivation of cell-free HIV-1 clinical virus; assay type: cell-based; conditions: inactivation of cell-free virions, means ± SD
PBL288 (C, R5) = assay: Inactivation of cell-free HIV-1 clinical virus; assay type: cell-based; conditions: inactivation of cell-free virions, means ± SD
[2] = Human immunodeficiency virus 1, MT2, laboratory-adapted strain IIIB, MT-2 cells, p24 ELISA, read-out: IC50, inhibition of HIV-1 IIIB infection
[3] = Human immunodeficiency virus 1, laboratory-adapted strain Bal, CEMx174 5.25 M7 cells, p24 ELISA, read-out: IC50, inhibition of HIV-1 Bal infection
[4] = CEMx174 5.25 M7 cells, read-out: CC50, CEMx174 5.25 M7 cell
[5] = MT-2 cells, read-out: CC50, MT-2 cell

For `CC1(C)CC(NC(=O)C(=O)Nc2ccc(Cl)c(F)c2)CC(C)(C)N1` [FD016, N^1-(4-Chloro-3-Fluorophenyl)-N^2-(2,2,6,6-Tetramethylpiperidin-4-yl) Oxalamide], the IC50 (HIV-1 IIIB (X4); [2]) was 5930 nM, the IC50 (HIV-1 IIIB (X4); Human immunodeficiency virus 1, IIIB, combination experiment, alone, read-out: IC50 of FD016, Alone) was 4400 nM and the IC50 (HIV-1 IIIB (X4); Human immunodeficiency virus 1, IIIB, in mixture with FD017, read-out: IC50 of FD016, In mixture) was 1190 nM. It also gave an IC50 (HIV-1 Bal (R5); Human immunodeficiency virus 1, Bal, combination experiment, alone, read-out: IC50 of FD016, Alone) of 18800 nM, an IC50 (HIV-1 Bal (R5); Human immunodeficiency virus 1, Bal, in mixture with FD017, read-out: IC50 of FD016, In mixture) of 1820 nM and an IC50 (HIV-1 Bal (R5); [3]) of 17000 nM. For the same compound, the EC50 (HIV-1 IIIB; alone, read-out: EC50 of FD016, Alone) was > 10000 nM, the EC50 (HIV-1 IIIB; in mixture with FD017, read-out: EC50 of FD016, In mixture) was 2510 nM and the EC50 (HIV-1 Bal; Human immunodeficiency virus 1, Bal virus inactivation, alone, read-out: EC50 of FD016, Alone) was > 20000 nM. The EC50 (HIV-1 Bal; Human immunodeficiency virus 1, Bal virus inactivation, in mixture with FD017, read-out: EC50 of FD016, In mixture) was 2630 nM, the “Inhibition of gp120 CD4bs mAbs (B12 and N6) binding to gp120-expressing CHO cells” value (HIV-1 HXB2 gp120) was “could inhibit the interaction of gp120 and CD4bs-targeting mAbs effectively” and the CC50 at 48 h (Cytotoxicity (CCK-8); [4]) was > 50000 nM. The CC50 at 48 h (Cytotoxicity (CCK-8); [5]) was > 50000 nM.

For `O=C(O)c1cc(-c2ccc(/C=C3\SC(=S)N(CCc4ccc(O)cc4)C3=O)o2)ccc1Cl` [FD017, (Z)-2-Chloro-5-(5-((3-(4-Hydroxyphenethyl)-4-oxo-2-Thioxothiazolidin-5-ylidene)methyl)furan-2-yl)benzoic Acid], the IC50 (HIV-1 IIIB (X4); [2]) was 1440 nM, the IC50 (HIV-1 IIIB (X4); Human immunodeficiency virus 1, IIIB, combination experiment, alone, read-out: IC50 of FD017, Alone) was 1800 nM and the IC50 (HIV-1 IIIB (X4); Human immunodeficiency virus 1, IIIB, in mixture with FD016, read-out: IC50 of FD017, In mixture) was 590 nM. For the same compound, the IC50 (HIV-1 Bal (R5); Human immunodeficiency virus 1, Bal, combination experiment, alone, read-out: IC50 of FD017, Alone) was 1480 nM, the IC50 (HIV-1 Bal (R5); Human immunodeficiency virus 1, Bal, in mixture with FD016, read-out: IC50 of FD017, In mixture) was 910 nM and the IC50 (HIV-1 Bal (R5); [3]) was 830 nM. The EC50 (HIV-1 IIIB; alone, read-out: EC50 of FD017, Alone) was > 10000 nM, the EC50 (HIV-1 IIIB; in mixture with FD016, read-out: EC50 of FD017, In mixture) was 1210 nM and the EC50 (HIV-1 Bal; Human immunodeficiency virus 1, Bal virus inactivation, alone, read-out: EC50 of FD017, Alone) was > 5000 nM. For the same compound, the EC50 (HIV-1 Bal; Human immunodeficiency virus 1, Bal virus inactivation, in mixture with FD016, read-out: EC50 of FD017, In mixture) was 1380 nM, the IC50 [1] was 1360 nM and the CC50 at 48 h (Cytotoxicity (CCK-8); [4]) was 39800 nM. The CC50 at 48 h (Cytotoxicity (CCK-8); [5]) was 47900 nM.

With Maraviroc [reference compound] the IC50 (HIV-1 Bal (R5); laboratory-adapted strain Bal, CEMx174 5.25 M7 cells, p24 ELISA, read-out: IC50, inhibition of HIV-1 Bal infection) was 1 nM, the EC50 (HIV-1 Bal; cell-free virions, 1 h at 4°C, PEG-6000 precipitation, read-out: EC50, inactivation of HIV-1 Bal) was > 500 nM and the EC50 (92/TH/009 (A/E, R5)) was > 500 nM. For the same compound, the EC50 (KNH1135 (A, R5)) was > 500 nM, the EC50 (SM145/GS 016 (C, R5)) was > 500 nM and the EC50 (PBL288 (C, R5)) was > 500 nM.
